This note sets out measurements from BindingDB's records for patent US20230286970 (Italfarmaco, 2023).

Common to all, as to test: Enzymatic Activity Assay
One assay deals with T1, Histone deacetylase 6 (Homo sapiens, UniProt Q9UBN7).
T1 sequence (Q9UBN7 whole entry): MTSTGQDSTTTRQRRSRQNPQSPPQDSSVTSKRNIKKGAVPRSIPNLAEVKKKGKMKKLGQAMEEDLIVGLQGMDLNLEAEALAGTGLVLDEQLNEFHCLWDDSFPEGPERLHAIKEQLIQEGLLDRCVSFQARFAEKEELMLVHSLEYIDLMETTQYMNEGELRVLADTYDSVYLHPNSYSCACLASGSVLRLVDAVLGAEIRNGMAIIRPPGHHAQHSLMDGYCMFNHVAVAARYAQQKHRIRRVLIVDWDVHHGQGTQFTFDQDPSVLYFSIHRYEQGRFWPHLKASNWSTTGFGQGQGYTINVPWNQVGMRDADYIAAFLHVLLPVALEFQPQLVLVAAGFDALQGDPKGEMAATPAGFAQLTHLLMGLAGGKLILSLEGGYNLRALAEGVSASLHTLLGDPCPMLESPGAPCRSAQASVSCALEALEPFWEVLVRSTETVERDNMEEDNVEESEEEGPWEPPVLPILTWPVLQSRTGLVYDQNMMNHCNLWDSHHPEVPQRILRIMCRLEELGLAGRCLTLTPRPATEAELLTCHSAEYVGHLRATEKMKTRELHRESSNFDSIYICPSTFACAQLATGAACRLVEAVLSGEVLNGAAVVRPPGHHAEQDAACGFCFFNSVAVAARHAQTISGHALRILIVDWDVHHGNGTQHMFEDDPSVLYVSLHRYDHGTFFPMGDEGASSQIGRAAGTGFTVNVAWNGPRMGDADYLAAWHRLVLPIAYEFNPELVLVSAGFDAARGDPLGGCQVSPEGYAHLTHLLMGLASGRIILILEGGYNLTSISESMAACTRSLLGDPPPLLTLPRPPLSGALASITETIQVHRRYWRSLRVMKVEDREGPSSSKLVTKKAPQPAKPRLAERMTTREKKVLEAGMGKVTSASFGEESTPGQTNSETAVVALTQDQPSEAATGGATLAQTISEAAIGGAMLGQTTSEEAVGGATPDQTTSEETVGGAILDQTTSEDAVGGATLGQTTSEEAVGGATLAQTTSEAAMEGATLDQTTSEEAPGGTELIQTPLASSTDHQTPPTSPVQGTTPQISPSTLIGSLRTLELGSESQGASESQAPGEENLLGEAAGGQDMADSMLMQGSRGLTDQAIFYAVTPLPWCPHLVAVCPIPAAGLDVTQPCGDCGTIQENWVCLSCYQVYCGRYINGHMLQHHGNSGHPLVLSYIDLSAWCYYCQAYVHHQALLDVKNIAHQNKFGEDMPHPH
As for the experimental part: (§1) After a period of preincubation (incubation times and temperatures vary for different isoforms and are shown in table 1) 25 μL of solution containing the substrate were added. […] Enzymatic activity on recombinant human HDAC6 and HDAC1 was evaluated (Table 2) for each synthesized compound.

For another assay, the target named is Histone deacetylase 9 (Homo sapiens, UniProt Q9UKV0). On the procedure:
as §1

Another assay concerns the target Histone deacetylase 1 (Homo sapiens, UniProt Q13547). On the procedure: as §1
Assay [1] concerns the target T2, Polyamine deacetylase HDAC10 (Homo sapiens, UniProt Q969S8).
T2 sequence (Q969S8 whole entry): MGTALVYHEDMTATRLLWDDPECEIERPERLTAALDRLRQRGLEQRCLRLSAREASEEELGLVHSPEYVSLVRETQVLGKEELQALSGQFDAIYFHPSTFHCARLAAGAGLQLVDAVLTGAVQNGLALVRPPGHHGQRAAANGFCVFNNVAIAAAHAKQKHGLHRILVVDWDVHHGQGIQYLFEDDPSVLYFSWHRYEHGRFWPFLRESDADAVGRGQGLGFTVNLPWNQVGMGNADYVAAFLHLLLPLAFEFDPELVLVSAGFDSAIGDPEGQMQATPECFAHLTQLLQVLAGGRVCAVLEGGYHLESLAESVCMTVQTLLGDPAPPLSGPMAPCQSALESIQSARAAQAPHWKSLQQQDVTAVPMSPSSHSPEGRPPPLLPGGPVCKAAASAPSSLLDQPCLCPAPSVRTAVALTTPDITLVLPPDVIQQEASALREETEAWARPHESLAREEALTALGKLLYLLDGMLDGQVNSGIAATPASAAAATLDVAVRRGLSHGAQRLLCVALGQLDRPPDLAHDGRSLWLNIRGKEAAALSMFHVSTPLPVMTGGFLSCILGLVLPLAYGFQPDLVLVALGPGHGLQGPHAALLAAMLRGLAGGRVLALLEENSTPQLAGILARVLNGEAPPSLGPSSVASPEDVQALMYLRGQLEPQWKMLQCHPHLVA
On the procedure: as §1

A further assay has as its target Histone deacetylase 4 (Homo sapiens, UniProt P56524). On the procedure: as §1
In another assay the target is T3, Histone deacetylase 7 (Homo sapiens, UniProt Q8WUI4).
T3 sequence (Q8WUI4 whole entry): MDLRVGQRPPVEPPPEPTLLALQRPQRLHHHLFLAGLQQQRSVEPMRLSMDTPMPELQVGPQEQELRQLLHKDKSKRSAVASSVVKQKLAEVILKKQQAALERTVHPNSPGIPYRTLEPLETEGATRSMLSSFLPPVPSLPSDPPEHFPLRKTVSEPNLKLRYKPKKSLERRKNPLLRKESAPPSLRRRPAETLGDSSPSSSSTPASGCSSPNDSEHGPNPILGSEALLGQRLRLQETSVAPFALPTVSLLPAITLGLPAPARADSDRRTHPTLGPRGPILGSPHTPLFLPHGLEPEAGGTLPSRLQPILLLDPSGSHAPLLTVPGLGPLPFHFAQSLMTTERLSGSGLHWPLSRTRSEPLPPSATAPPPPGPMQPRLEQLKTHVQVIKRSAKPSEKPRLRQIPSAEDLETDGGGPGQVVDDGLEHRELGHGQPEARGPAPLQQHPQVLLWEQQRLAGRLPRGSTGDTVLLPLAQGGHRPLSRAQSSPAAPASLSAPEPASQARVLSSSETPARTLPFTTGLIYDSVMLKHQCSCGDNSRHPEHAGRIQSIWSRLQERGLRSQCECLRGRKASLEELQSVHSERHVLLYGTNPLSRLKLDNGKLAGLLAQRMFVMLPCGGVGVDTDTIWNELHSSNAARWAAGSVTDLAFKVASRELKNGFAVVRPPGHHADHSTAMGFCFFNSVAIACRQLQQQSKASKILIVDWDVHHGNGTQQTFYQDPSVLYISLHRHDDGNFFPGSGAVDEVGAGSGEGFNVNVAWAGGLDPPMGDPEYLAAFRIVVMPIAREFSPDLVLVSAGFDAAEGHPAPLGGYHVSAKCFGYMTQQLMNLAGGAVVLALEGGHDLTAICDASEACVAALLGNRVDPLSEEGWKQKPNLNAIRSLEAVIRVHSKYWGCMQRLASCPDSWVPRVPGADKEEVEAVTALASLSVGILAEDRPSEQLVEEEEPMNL
On the procedure: as §1

Some results are limits rather than exact numbers.

Sequence of Histone deacetylase 1 (Q13547 whole entry): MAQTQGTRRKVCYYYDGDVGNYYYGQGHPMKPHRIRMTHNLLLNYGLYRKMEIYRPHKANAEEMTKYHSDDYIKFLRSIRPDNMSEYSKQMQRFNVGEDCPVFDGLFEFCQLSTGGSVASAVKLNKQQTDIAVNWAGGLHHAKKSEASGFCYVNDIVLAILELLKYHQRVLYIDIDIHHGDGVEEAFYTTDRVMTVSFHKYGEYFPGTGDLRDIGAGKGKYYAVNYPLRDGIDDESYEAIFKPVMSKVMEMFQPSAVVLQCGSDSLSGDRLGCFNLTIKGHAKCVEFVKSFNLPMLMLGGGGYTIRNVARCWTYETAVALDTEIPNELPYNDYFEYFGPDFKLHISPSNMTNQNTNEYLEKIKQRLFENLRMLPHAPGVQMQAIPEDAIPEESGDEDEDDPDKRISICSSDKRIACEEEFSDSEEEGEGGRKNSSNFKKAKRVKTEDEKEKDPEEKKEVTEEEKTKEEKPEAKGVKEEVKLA
Sequence of Histone deacetylase 4 (P56524 whole entry): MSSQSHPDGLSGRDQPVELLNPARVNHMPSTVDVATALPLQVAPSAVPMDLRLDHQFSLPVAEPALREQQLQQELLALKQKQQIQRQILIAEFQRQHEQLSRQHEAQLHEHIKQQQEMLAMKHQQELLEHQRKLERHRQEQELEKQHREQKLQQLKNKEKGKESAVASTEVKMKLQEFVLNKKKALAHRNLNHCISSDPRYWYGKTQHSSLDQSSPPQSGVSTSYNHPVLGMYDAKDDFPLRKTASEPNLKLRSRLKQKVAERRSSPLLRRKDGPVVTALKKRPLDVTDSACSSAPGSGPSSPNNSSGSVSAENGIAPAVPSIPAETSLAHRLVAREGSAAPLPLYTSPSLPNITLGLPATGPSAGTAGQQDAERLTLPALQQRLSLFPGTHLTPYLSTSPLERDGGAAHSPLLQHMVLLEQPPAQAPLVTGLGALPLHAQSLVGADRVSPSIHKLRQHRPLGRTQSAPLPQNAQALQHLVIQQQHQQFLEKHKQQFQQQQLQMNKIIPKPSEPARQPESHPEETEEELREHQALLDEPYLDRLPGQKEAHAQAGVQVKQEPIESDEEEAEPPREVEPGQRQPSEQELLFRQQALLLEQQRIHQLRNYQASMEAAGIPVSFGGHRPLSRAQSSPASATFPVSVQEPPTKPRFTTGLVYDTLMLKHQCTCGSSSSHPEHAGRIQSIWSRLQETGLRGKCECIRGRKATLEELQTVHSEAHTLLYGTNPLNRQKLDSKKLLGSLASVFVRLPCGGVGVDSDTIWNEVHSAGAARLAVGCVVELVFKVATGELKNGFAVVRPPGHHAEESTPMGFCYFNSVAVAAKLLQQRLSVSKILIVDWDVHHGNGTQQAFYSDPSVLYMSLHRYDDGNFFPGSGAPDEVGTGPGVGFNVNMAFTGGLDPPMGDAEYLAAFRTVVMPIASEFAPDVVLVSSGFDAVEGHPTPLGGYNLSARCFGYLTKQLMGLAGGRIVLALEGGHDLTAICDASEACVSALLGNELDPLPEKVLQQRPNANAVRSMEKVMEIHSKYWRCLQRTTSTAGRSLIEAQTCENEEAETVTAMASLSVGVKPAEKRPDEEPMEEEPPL
Sequence of Histone deacetylase 9 (Q9UKV0 whole entry): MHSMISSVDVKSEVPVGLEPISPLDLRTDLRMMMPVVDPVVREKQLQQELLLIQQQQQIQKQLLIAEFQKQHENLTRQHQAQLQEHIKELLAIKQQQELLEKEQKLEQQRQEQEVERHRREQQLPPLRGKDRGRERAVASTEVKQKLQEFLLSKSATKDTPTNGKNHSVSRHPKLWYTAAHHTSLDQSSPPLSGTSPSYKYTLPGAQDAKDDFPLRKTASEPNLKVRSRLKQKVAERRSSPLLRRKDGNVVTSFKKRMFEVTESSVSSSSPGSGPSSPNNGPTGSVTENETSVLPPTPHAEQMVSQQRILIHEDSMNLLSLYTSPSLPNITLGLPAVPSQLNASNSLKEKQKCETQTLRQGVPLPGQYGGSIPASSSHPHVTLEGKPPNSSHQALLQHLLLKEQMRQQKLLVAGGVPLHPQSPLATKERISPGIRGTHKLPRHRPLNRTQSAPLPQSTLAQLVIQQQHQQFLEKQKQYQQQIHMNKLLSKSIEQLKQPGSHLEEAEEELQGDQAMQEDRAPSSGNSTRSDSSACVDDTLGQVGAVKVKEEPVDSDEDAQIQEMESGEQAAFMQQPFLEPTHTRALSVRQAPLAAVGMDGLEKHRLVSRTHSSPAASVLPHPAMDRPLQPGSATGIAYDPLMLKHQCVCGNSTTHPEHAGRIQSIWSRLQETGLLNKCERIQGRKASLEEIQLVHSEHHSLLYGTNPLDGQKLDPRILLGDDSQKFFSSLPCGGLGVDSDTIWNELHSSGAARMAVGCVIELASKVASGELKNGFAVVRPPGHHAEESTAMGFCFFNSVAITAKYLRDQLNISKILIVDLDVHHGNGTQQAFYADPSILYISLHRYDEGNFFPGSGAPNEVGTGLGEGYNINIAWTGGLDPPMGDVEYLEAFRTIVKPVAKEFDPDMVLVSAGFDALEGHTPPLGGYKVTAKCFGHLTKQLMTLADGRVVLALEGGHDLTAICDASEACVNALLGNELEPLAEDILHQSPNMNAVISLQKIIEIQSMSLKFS

What is called IC50 is the midpoint of a concentration-inhibition curve. High values mean weaker potency in that assay, low ones greater potency in that assay. Regarding `Nc1nc2ccc(-c3cn(Cc4ccc(-c5nnc(C(F)F)o5)cc4)nn3)cc2s1` [US20230286970, Compound 14], the IC50 against Histone deacetylase 6 was 0.025 µM; against Histone deacetylase 9, greater than 30 µM; on Histone deacetylase 1 it was greater than 200 µM; in assay [1], greater than 30 µM; against Histone deacetylase 4, greater than 30 µM; on Histone deacetylase 7, greater than 30 µM.

In the case of `Nc1ccc(-c2cn(Cc3ccc(-c4nnc(C(F)F)o4)c(F)c3)nn2)cn1` [US20230286970, Compound 15], the IC50 against Histone deacetylase 6 is 0.026 µM; on Histone deacetylase 9, greater than 30 µM; on Histone deacetylase 1, greater than 200 µM; in assay [1], greater than 30 µM; at Histone deacetylase 4, greater than 30 µM; on Histone deacetylase 7, greater than 30 µM.
